Experimental data from patent US8134015B2, “Compound inhibiting in vivo phosphorous transport and medicine containing the same” (Kyowa Hakko Kirin Co., Ltd., priority 2003, dated 2012).

Biological target: T1, rat NaPi-2b (Rattus norvegicus, UniProt Q9JJ09)
T1 construct: expressed in transfected cells; host or cells: Xenopus oocytes injected with cRNA
T1 sequence (Q9JJ09 1-695): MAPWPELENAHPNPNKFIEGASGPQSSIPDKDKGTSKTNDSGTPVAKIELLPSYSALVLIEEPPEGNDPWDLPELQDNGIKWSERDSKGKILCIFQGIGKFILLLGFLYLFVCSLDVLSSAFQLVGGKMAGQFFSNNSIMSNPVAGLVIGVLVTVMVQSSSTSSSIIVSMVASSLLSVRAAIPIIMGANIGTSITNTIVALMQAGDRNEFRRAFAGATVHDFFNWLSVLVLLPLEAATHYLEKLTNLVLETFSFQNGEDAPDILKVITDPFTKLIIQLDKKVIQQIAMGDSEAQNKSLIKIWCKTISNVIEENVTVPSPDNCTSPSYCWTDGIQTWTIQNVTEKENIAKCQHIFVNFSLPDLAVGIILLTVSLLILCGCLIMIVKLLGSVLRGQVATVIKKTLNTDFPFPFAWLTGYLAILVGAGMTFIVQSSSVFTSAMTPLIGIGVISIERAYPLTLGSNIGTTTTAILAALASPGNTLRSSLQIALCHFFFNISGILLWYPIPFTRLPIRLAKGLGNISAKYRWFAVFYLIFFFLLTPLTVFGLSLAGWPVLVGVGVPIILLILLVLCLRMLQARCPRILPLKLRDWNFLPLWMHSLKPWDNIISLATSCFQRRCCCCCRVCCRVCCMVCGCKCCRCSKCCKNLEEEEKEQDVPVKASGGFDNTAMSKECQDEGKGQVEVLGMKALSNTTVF
Test: Sodium-dependent phosphate uptake of Xenopus oocytes which expressed NaPi-2b (32P)
Format: cell-based
Conditions: Xenopus oocytes expressing rat NaPi-2b, 32P radioactive phosphorus; read-out: IC50 (phosphate uptake inhibitory activity)
In short: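 Rat NaPi-2b cloned from small-intestine cDNA; cRNA injected into Xenopus oocytes, expression for 2 days. Phosphate uptake inhibition measured with 32P; percent inhibition at 300 μM and 100 μM read from the same inhibition curve.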

Row | Compound | IC50 [µM]
1 | COc1ccc(/C=N/NC(=O)c2cc(Br)ccc2NC(=O)c2ccc(CN3CCN(CCO)CC3)cc2)cc1 [Compound 322, N-[4-Bromo-2-(4-methoxy-benzylidene-hydrazinocarbonyl)-phenyl]-4-[4-(2-hydroxy-ethyl)-piperazin-1-ylmethyl]-benzamide] | 5.93
2 | CC(O)CN(Cc1cccc(C(=O)Nc2sccc2C(=O)N/N=C/c2cccc(F)c2)c1)CC(C)O (stereo not shown) [Compound 673, 3-{[Bis-(2-hydroxy-propyl)-amino]-methyl}-N-[3-(3-fluoro-benzylidene-hydrazinocarbonyl)-thiophen-2-yl]-benzamide] | 10.1
3 | Cc1ccc(/C=N/NC(=O)c2cc(N3CCCC3=O)ccc2NC(=O)c2cccc(CN(CC(C)O)CC(C)O)c2)cc1 (stereo not shown) [Compound 948, 3-{[Bis-(2-hydroxy-propyl)-amino]-methyl}-N-[2-(4-methyl-benzylidene-hydrazinocarbonyl)-4-(2-oxo-pyrrolidin-1-yl)-phenyl]-benzamide] | 11.6
4 | COc1cccc(/C=N/NC(=O)c2cc(Cl)ccc2NC(=O)c2cccc(CSc3nnnn3CCN(C)C)c2)c1 [Compound 468, N-[4-Chloro-2-(3-methoxy-benzylidene-hydrazinocarbonyl)-phenyl]-3-[1-(2-dimethylamino-ethyl)-1H-tetrazol-5-ylsulfanylmethyl]-benzamide] | 22.4
5 | COc1ccc(C(=O)Nc2ccc(I)cc2C(=O)N/N=C/c2ccc(F)cc2)cc1OC [Compound 205, N-[2-(4-Fluoro-benzylidene-hydrazinocarbonyl)-4-iodo-phenyl]-3,4-dimethoxy-benzamide] | < 3
6 | CC1CCN(c2ccc(NC(=O)c3cccc(CSCCO)c3)c(C(=O)N/N=C/c3ccc(Cl)c(C(F)(F)F)c3)c2)CC1 [Compound 1070, N-[2-(4-Chloro-3-trifluoromethyl-benzylidene-hydrazinocarbonyl)-4-(4-methyl-piperidin-1-yl)-phenyl]-3-(2-hydroxy-ethylsulfanylmethyl)-benzamide] | < 1
7 | COc1ccc(/C=N/NC(=O)c2c(NC(=O)c3cccc(CN4CCC(CO)CC4)c3)sc3ccccc23)cc1 [Compound 803, 3-(4-Hydroxymethyl-piperidin-1-ylmethyl)-N-[3-(4-methoxy-benzylidene-hydrazinocarbonyl)-benzo[b]thiophen-2-yl]-benzamide] | 4.92
8 | CC(O)CN(Cc1ccc(C(=O)Nc2ccc(Br)cc2C(=O)N/N=C/c2ccc(F)cc2)cc1)CC(C)O (stereo not shown) [Compound 719, 4-{[Bis-(2-hydroxy-propyl)-amino]-methyl}-N-[4-bromo-2-(4-fluoro-benzylidene-hydrazinocarbonyl)-phenyl]-benzamide] | 9.59
9 | O=C(Nc1ccc(Cl)cc1C(=O)N/N=C/c1cccc(O)c1)c1cccc(CN2CCC(N3CCCCC3)CC2)c1 [Compound 376, 3-[1,4′]Bipiperidinyl-1′-ylmethyl-N-[4-chloro-2-(3-hydroxy-benzylidene-hydrazinocarbonyl)-phenyl]-benzamide] | 21
10 | Cc1ccc(/C=N/NC(=O)c2cc(Br)ccc2NC(=O)c2ccc(CN3CCC(O)CC3)cc2)cc1 [Compound 325, N-[4-Bromo-2-(4-methyl-benzylidene-hydrazinocarbonyl)-phenyl]-4-(4-hydroxy-piperidin-1-ylmethyl)-benzamide] | 2.56
11 | CN(CCO)Cc1cccc(C(=O)Nc2ccc(Cl)cc2C(=O)N/N=C/c2cccc(F)c2)c1 [Compound 394, N-[4-Chloro-2-(3-fluoro-benzylidene-hydrazinocarbonyl)-phenyl]-3-{[(2-hydroxy-ethyl)-methyl-amino]-methyl}-benzamide] | 0.95
12 | Cc1cc(/C=N/NC(=O)c2cc(Cl)ccc2NC(=O)c2cccnc2)oc1C [Compound 222, N-[4-Chloro-2-(4,5-dimethyl-furan-2-ylmethylene-hydrazinocarbonyl)-phenyl]-nicotinamide] | 8.86
13 | Cc1ccc(CNNC(=O)c2cc(Cl)ccc2NC(=O)c2cccc(CSCCO)c2)cc1C [Compound 492, N-{4-Chloro-2-[N′-(3,4-dimethyl-benzyl)-hydrazinocarbonyl]-phenyl}-3-(2-hydroxy-ethylsulfanylmethyl)-benzamide] | < 3
14 | CCN(CC)CCN(C)Cc1cccc(C(=O)Nc2sccc2C(=O)N/N=C/c2ccc(OC)cc2)c1 [Compound 669, 3-{[(2-Diethylamino-ethyl)-methyl-amino]-methyl}-N-[3-(4-methoxy-benzylidene-hydrazinocarbonyl)-thiophen-2-yl]-benzamide] | 15.3
15 | Cc1ccc(/C=N/NC(=O)c2cc(Cl)ccc2NC(=O)c2cccc(CN(C)CCO)c2)cc1 [Compound 397, N-[4-Chloro-2-(4-methyl-benzylidene-hydrazinocarbonyl)-phenyl]-3-{[(2-hydroxy-ethyl)-methyl-amino]-methyl}-benzamide] | 9.25
16 | Cc1ccc(/C=N/NC(=O)c2c(C)csc2NC(=O)c2cccc(CN3CCN(c4ncccn4)CC3)c2)cc1C [Compound 826, N-[3-(3,4-Dimethyl-benzylidene-hydrazinocarbonyl)-4-methyl-thiophen-2-yl]-3-(4-pyrimidin-2-yl-piperazin-1-ylmethyl)-benzamide] | 4.44
17 | O=C(Nc1ccc(Cl)cc1C(=O)N/N=C/c1cccc(F)c1)c1cccnc1 [Compound 184, N-[4-Chloro-2-(3-fluoro-benzylidene-hydrazinocarbonyl)-phenyl]-nicotinamide] | 4.01
18 | CCN1CC(NCc2ccc(-c3nc4ccc(Br)cc4c(=O)n3/N=C/c3ccc(Cl)c(C(F)(F)F)c3)cc2)CN1CC [Compound 753, 6-Bromo-3-[(4-chloro-3-trifluoromethyl-benzylidene)-amino]-2-{4-[(1,2-diethyl-pyrazolidin-4-ylamino)-methyl]-phenyl}-3H-quinazolin-4-one] | 12.4
19 | CCSCCNCc1ccc(C(=O)Nc2ccc(Br)cc2C(=O)N/N=C/c2ccc(OC)cc2)cc1 [Compound 770, N-[4-Bromo-2-(4-methoxy-benzylidene-hydrazinocarbonyl)-phenyl]-4-[(2-ethylsulfanyl-ethylamino)-methyl]-benzamide] | 16.5
20 | O=C(Nc1ccc(I)cc1C(=O)N/N=C/c1ccc(O)cc1)c1cccc(CN2CCC(N3CCCCC3)CC2)c1 [Compound 491, 3-[1,4′]Bipiperidinyl-1′-ylmethyl-N-[2-(4-hydroxy-benzylidene-hydrazinocarbonyl)-4-iodo-phenyl]-benzamide] | < 3
21 | CCN(CC)CCN(C)Cc1cccc(C(=O)Nc2ccc(I)cc2C(=O)N/N=C/c2cccc(O)c2)c1 [Compound 480, 3-{[(2-Diethylamino-ethyl)-methyl-amino]-methyl}-N-[2-(3-hydroxy-benzylidene-hydrazinocarbonyl)-4-iodo-phenyl]-benzamide] | < 3
22 | O=C(Nc1ccc(Cl)cc1C(=O)N/N=C/C=C/c1ccccc1)c1cccnc1 [Compound 348, N-[4-Chloro-2-(3-phenyl-allylidene-hydrazinocarbonyl)-phenyl]-nicotinamide] | 16.6
23 | COc1cccc(/C=N/NC(=O)c2cc(Br)ccc2NC(=O)c2ccc(CN3CCC(O)CC3)cc2)c1 [Compound 331, N-[4-Bromo-2-(3-methoxy-benzylidene-hydrazinocarbonyl)-phenyl]-4-(4-hydroxy-piperidin-1-ylmethyl)-benzamide] | 15.8

Same assay, conditions: phosphate uptake, oocytes expressing rat NaPi-2b; 300 μM, determined from inhibition curve

Row | Compound | inhibition at 300 µM [%]
24 | CCSCCNCc1ccc(C(=O)Nc2ccc(Br)cc2C(=O)N/N=C/c2ccc(F)cc2)cc1 [Compound 767, N-[4-Bromo-2-(4-fluoro-benzylidene-hydrazinocarbonyl)-phenyl]-4-[(2-ethylsulfanyl-ethylamino)-methyl]-benzamide] | 81.8
25 | COc1ccc(C(=O)Nc2ccc(Cl)cc2C(=O)N/N=C/c2cccc(C)n2)cc1OC [Compound 246, N-[4-Chloro-2-(6-methyl-pyridin-2-ylmethylene-hydrazinocarbonyl)-phenyl]-3,4-dimethoxy-benzamide] | 32.6
26 | CCN(CC)CCN(C)Cc1cccc(C(=O)Nc2cc(OCCOC)c(OCCOC)cc2C(=O)N/N=C/c2ccc(Cl)c(C(F)(F)F)c2)c1 [Compound 1031, N-[2-(4-Chloro-3-trifluoromethyl-benzylidene-hydrazinocarbonyl)-4,5-bis-(2-methoxy-ethoxy)-phenyl]-3-{[(2-diethylamino-ethyl)-methyl-amino]-methyl}-benzamide] | 58.8
27 | CCOCCN(CCOCC)Cc1ccc(C(=O)Nc2ccc(Br)cc2C(=O)N/N=C/c2ccc(OC)cc2)cc1 [Compound 739, 4-{[Bis-(2-ethoxy-ethyl)-amino]-methyl}-N-[4-bromo-2-(4-methoxy-benzylidene-hydrazinocarbonyl)-phenyl]-benzamide] | 58.9
28 | CCOCCN(CCOCC)Cc1ccc(C(=O)Nc2ccc(Br)cc2C(=O)N/N=C/c2ccc(F)cc2)cc1 [Compound 736, 4-{[Bis-(2-ethoxy-ethyl)-amino]-methyl}-N-[4-bromo-2-(4-fluoro-benzylidene-hydrazinocarbonyl)-phenyl]-benzamide] | 61.5
